Values quoted from earlier work in patent publication US20060036094A1 (priority 2004, published 2006).

Tested on: phorbol myristate-induced inflammation

zoanthamine
inhibitory activity toward phorbol myristate-induced inflammation: potent inhibitory activity
